Laboratory results taken from patent US20120152149A1, “USE OF 1,3-DIOLS AS BIOCIDES” (BASF SE, priority 2009, published 2012).

Legend:
Assay type in all cases: cell-based
E. coli ATCC 10536 = assay: Preservation stress test, example formulation 1 (standard emulsion O/W); settings: 1% active substance
Outline: (§1)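 O/W emulsion containing 1% diol (water as placebo), inoculated individually or as mixed culture at 10^5-10^6 CFU/g and held 28 d at 20-25° C. Surviving counts at 0, 2, 7, 14 and 28 d after dilution in neutralising phosphate buffer pH 7.4 with Tween 80/lecithin; expressed as log reduction from initial count.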

P. aeruginosa ATCC 15442 = assay: as above; settings: 1% active substance
Outline: as §1

S. aureus ATCC 6538 = assay: as above; settings: 1% active substance
Outline: as §1

C. albicans ATCC 10231 = assay: Suspension test EN 1275, activity against yeasts; settings: 1000 ppm of active substance
Experimental: The fungicidal activity was determined in accordance with European standard EN 1275 and compared with the activities of customary commercial products, with only slight modifications having been carried out. The substances of the formula (1) were dissolved in water or ethanol to give a 1% strength stock solution. To determine the microbicidal activities of the diols against yeasts, the test mixtures were selected such that 1000 ppm of active substance was present in an aqueous solution. For the results shown in table 2, the test mixtures were inoculated with the following yeast and mold strains such that the stated germ densities were present in the test mixtures. C. albicans ATCC 10231 1−2×10^6 CFU/ml The test mixtures were incubated at room temperature (22° C.+/−2° C.). After defined contact times, aliquots of 1 ml were taken in order to determine the surviving germ count. For the deactivation of the microbicidal activity of the diols, the aliquots were diluted in 1:10 dilution steps in a solution of Sabouraud medium with 10% Tween, 3% lecithin, 0.1% histidines and 0.5% sodium thiosulfate and the 10^−2, 10^−3 and 10^−4 dilution stages were used for determining the surviving germ count. For this, corresponding aliquots were plated out on Sabouraud medium with inhibitor and incubated at 30° C. for 2 d. The ascertained surviving germ counts were in each case compared with a mixture containing water (water control) by determining the logarithmic reduction in the surviving germ counts based on the water control.

[1] = tested on: E. coli ATCC 10536, S. aureus ATCC 6538, P. aeruginosa ATCC 15442; assay: Preservation stress test, example formulation 1 (standard emulsion O/W), bacteria together; settings: 1% active substance, P. aeruginosa (one time series)
Experimental: Preservation stress tests (PSTs) were carried out in order to determine the preserving activity of the diols. In the preservation stress test, this is simulated through artificial loadings with microorganisms. These can either be inoculated as mixed population or individually in mixtures independent of one another. The inoculated product samples are incubated under defined conditions and, after defined times, samples are taken in order to determine the germ loading. In the case of adequate preservation, the number of microorganisms should, depending on the type, either decrease or remain constant in order to satisfy the requirements specified, e.g. in Ph. Eur. 6.0. To investigate the preserving effect of the diols, application-typical amounts of the diols were incorporated into example formulations. […] [table] These example formulations were used to prepare various mixtures which each comprised 1% active substance or comprised water instead of the active substance as placebo mixtures. These mixtures were in each case inoculated with the test germs such that a germ loading of 10^5-10^6 CFU/g was present in the test mixture. The bacteria were either used individually for the inoculation or as a mixed culture. To determine the starting germ count, immediately after inoculation, an aliquot was taken, diluted in dilution medium (phosphate buffer, 0.07 molar pH 7.4 (+/−0.2), with 1% Tween 80+0.3% soya lecithin), and the surviving germ count was determined in the dilution stages 10^−1 to 10^−3. The inoculated product samples then incubated for a total of 28 d at 20-25° C. After 2 d, 7 d, 14 d and after 28 d, aliquots were taken and diluted in dilution medium (phosphate buffer, 0.07 molar pH 7.4 (+/−0.2), with 1% Tween 80+0.3% soya lecithin). The surviving germ counts were determined in the dilution stages 10^−1 to 10^−4. The reference point taken for determining the reduction in germ count was the respective initial value of the sample. The results were given as logarithmic reductions.

| Compound | Microbicidal activity given as logarithmic reduction in germ count (E. coli ATCC 10536; 48 h) | Microbicidal activity given as logarithmic reduction in germ count (E. coli ATCC 10536; 7 d) | Microbicidal activity given as logarithmic reduction in germ count (E. coli ATCC 10536; 14 d) | Microbicidal activity given as logarithmic reduction in germ count (P. aeruginosa ATCC 15442; 48 h) | Microbicidal activity given as logarithmic reduction in germ count (P. aeruginosa ATCC 15442; 7 d) | Microbicidal activity given as logarithmic reduction in germ count (P. aeruginosa ATCC 15442; 14 d) | Microbicidal activity given as logarithmic reduction in germ count (S. aureus ATCC 6538; 48 h) | Microbicidal activity given as logarithmic reduction in germ count (S. aureus ATCC 6538; 7 d) | Microbicidal activity given as logarithmic reduction in germ count (S. aureus ATCC 6538; 14 d) | Microbicidal activity given as logarithmic reduction in germ count (C. albicans ATCC 10231; contact time 5 min) | Microbicidal activity given as logarithmic reduction in germ count (C. albicans ATCC 10231; contact time 30 min) | Microbicidal activity given as logarithmic reduction in germ count (C. albicans ATCC 10231; contact time 24 h) | Microbicidal activity given as logarithmic reduction in germ count ([1]; 48 h) | Microbicidal activity given as logarithmic reduction in germ count ([1]; 7 d) | Microbicidal activity given as logarithmic reduction in germ count ([1]; 14 d) | Microbicidal activity given as logarithmic reduction in germ count ([1]; 28 d) |
| --- | --- | --- | --- | --- | --- | --- | --- | --- | --- | --- | --- | --- | --- | --- | --- | --- |
| CCCC(O)CO (centres unmarked) [1,2-Pentanediol, 1,2-pentanediol, reference compound] | 0 log. Red. | 0 log. Red. | 0 log. Red. | 0 log. Red. | ≧3 log. Red. | ≧3 log. Red. | 0 log. Red. | 0 log. Red. | 0 log. Red. |  |  |  |  |  |  |  |
| CCCCCCCCC(C)(CO)CO [OMPD, 2-octyl-2-methylpropane-1,3-diol] |  |  |  |  |  |  |  |  |  | >4 log. red. | >4 log. red. | >4 log. red. | ≧3 log. Red. | 5 log. Red. | 5 log. Red. | 5 log. Red. |
| OCC1(CO)CC2CCC1C2 (centres unmarked) [2,2-DMNB, 2,2-dimethylolnorbornane] |  |  |  |  |  |  |  |  |  |  |  |  | ≧3 log. Red. | 5 log. Red. | 5 log. Red. | 5 log. Red. |
| CC(C)C(C)(CO)CO [IMPD, 2-isopropyl-2-methylpropane-1,3-diol] |  |  |  |  |  |  |  |  |  |  |  |  | ≧3 log. Red. | 5 log. Red. | 5 log. Red. | 5 log. Red. |
| OCC1(CO)CCCC1 [DMCP, 1,1-dimethylolcyclopentane] |  |  |  |  |  |  |  |  |  |  |  |  | 3 log. Red. | 5 log. Red. | 5 log. Red. | 5 log. Red. |
| CCCCCC(CO)(CO)CCC [PPPD, 2-pentyl-2-propylpropane-1,3-diol] |  |  |  |  |  |  |  |  |  | 1.7 log. red. | >5 log. red. | >5 log. red. | ≧3 log. Red. | 5 log. Red. | 5 log. Red. | 5 log. Red. |
